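96-well plates; 48 h exposure; 5 concentrations. Endpoints by linear interpolation between flanking doses. Not reached: highest tested concentration assigned. Abbreviation: GI50, concentration required for 50% inhibition of growth. TGI: concentration producing complete growth inhibition.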 Where a SMILES comes first, the peptide text is derived from it. [ ]: non-standard residue; d: D form.
Tests used:
Test in all cases: NCI anticancer screen, dose series, 48 h
SF-539 CNS = tested on: SF-539 CNS
HCT-15 colon = tested on: HCT-15 colon
HL-60(TB) leukemia = tested on: HL-60(TB) leukemia
HOP-62 NSCLC = tested on: HOP-62 NSCLC
RPMI-8226 leukemia = tested on: RPMI-8226 leukemia
MDA-MB-435 = tested on: MDA-MB-435
MDA-N = tested on: MDA-N
ACHN renal = tested on: ACHN renal
786-0 renal = tested on: 786-0 renal
T-47D breast = tested on: T-47D breast
HS 578T breast = tested on: HS 578T breast

In the case of `O=S(=O)(O)c1cc(S(=O)(=O)O)c2cc(N=Nc3ccc(N=Nc4ccc(/C=C/c5ccc(N=[N+]([O-])c6ccc(/C=C/c7ccc(N=Nc8ccc(N=Nc9ccc%10cc(S(=O)(=O)O)cc(S(=O)(=O)O)c%10c9)cc8)cc7S(=O)(=O)O)c(S(=O)(=O)O)c6)cc5S(=O)(=O)O)c(S(=O)(=O)O)c4)cc3)ccc2c1`, the TGI (SF-539 CNS) is reported as > 100 µM, the TGI (HCT-15 colon) is reported as > 100 µM and the TGI (HL-60(TB) leukemia) is reported as > 100 µM. The TGI (HOP-62 NSCLC) was > 100 µM and the TGI (RPMI-8226 leukemia) was > 100 µM.
`NC1(c2cc3ccccc3s2)CCCCCC1` showed a TGI (SF-539 CNS) of 32.8 µM, a TGI (HCT-15 colon) of 36.9 µM and a TGI (HL-60(TB) leukemia) of 31.5 µM. It also gave a TGI (MDA-MB-435) of 29.7 µM, a TGI (HOP-62 NSCLC) of 27.7 µM and a TGI (MDA-N) of 30.4 µM. For the same molecule, the TGI (ACHN renal) was 33.4 µM and the TGI (786-0 renal) was 28.8 µM.
For `N#CC1=C(O)NC(O)=C(C#N)C1c1c(Cl)cccc1Cl`, the TGI (SF-539 CNS) was 41.3 µM, the TGI (HCT-15 colon) was 51.9 µM and the TGI (HL-60(TB) leukemia) was > 100 µM. The TGI (HOP-62 NSCLC) was 67.8 µM, the TGI (ACHN renal) was > 100 µM and the TGI (RPMI-8226 leukemia) was > 100 µM.
With `CC(C)C[C@H](NC(=O)[C@H](CC(C)C)NC(=O)[C@@H](Cc1c[nH]c2ccccc12)NC(=O)[C@H](Cc1ccccc1)NC(=O)[C@@H](Cc1c[nH]c2ccccc12)NC(=O)[C@H](CCC(N)=O)NC(=O)[C@@H](CCC(N)=O)NC(=O)[C@@H]1CCCN1C(=O)[C@@H](CCCCN)NC(=O)[C@H]1CCCN1C(=O)[C@H](N)CCCN=C(N)N)C(N)=O` (H-[dR][dP][dK]P[dQ]Q[dW]F[dW]LL-NH2) the TGI (SF-539 CNS) was > 100 µM, the TGI (HCT-15 colon) was > 100 µM and the TGI (HL-60(TB) leukemia) was > 100 µM. For the same molecule, the TGI (HOP-62 NSCLC) was > 100 µM and the TGI (RPMI-8226 leukemia) was > 100 µM.
With `CC(C)OC1=C(CC2(C)OCCO2)C(=O)C12OCCO2` the TGI (T-47D breast) was > 100 µM, the TGI (SF-539 CNS) was > 100 µM and the TGI (HCT-15 colon) was > 100 µM. For the same molecule, the TGI (HL-60(TB) leukemia) was > 100 µM, the TGI (HS 578T breast) was > 100 µM and the TGI (MDA-MB-435) was > 100 µM. For the same molecule, the TGI (HOP-62 NSCLC) was > 100 µM, the TGI (ACHN renal) was > 100 µM and the TGI (786-0 renal) was > 100 µM.
In the case of `O=c1c2cccnc2oc2c(Cl)cc(-c3nn[nH]n3)cc12`, the TGI (T-47D breast) is reported as > 100 µM, the TGI (SF-539 CNS) is reported as > 100 µM and the TGI (HCT-15 colon) is reported as > 100 µM. For the same molecule, the TGI (HL-60(TB) leukemia) was > 100 µM, the TGI (HS 578T breast) was > 100 µM and the TGI (MDA-MB-435) was > 100 µM. For the same molecule, the TGI (HOP-62 NSCLC) was > 100 µM, the TGI (MDA-N) was > 100 µM and the TGI (ACHN renal) was > 100 µM.
For `COC(=O)/C1=C/C=C\C[C@@]2(C)CC(c3ccoc3)OC(=O)[C@@H]2CC[C@H]1C` (stereo not given in full), the TGI (SF-539 CNS) was > 25 µM, the TGI (HCT-15 colon) was > 25 µM and the TGI (HL-60(TB) leukemia) was > 25 µM. For the same molecule, the TGI (HS 578T breast) was > 25 µM, the TGI (HOP-62 NSCLC) was > 25 µM and the TGI (MDA-N) was > 25 µM. The TGI (ACHN renal) was > 25 µM and the TGI (786-0 renal) was > 25 µM.
`CC(C)(C)OC(=O)N1C(=O)C2CCCC21` (stereo not given) was tested, and the TGI (T-47D breast) was > 100 µM, the TGI (HCT-15 colon) was > 100 µM and the TGI (HL-60(TB) leukemia) was > 100 µM. For the same molecule, the TGI (HS 578T breast) was > 100 µM, the TGI (MDA-MB-435) was > 100 µM and the TGI (HOP-62 NSCLC) was > 100 µM. For the same molecule, the TGI (ACHN renal) was > 100 µM, the TGI (786-0 renal) was > 100 µM and the TGI (RPMI-8226 leukemia) was > 100 µM.
`C=CC(=O)N1C/C(=C\c2ccc(OC)cc2)C(=O)/C(=C/c2ccc(OC)cc2)C1` was tested, and the TGI (T-47D breast) was > 100 µM, the TGI (SF-539 CNS) was 3.53 µM and the TGI (HCT-15 colon) was 4.23 µM. The TGI (HL-60(TB) leukemia) was > 100 µM, the TGI (HS 578T breast) was > 28.7 µM and the TGI (MDA-MB-435) was 7.76 µM. For the same molecule, the TGI (HOP-62 NSCLC) was 11.2 µM, the TGI (ACHN renal) was 3.47 µM and the TGI (786-0 renal) was 4.17 µM. The TGI (RPMI-8226 leukemia) was > 100 µM.
`COCC(C#N)NC1CC(OC2CC(O)(C(=O)CO)Cc3c(O)c4c(c(O)c32)C(=O)c2c(OC)cccc2C4=O)OC(C)C1O` (stereo not given) showed a TGI (SF-539 CNS) of 0.365 µM, a TGI (HCT-15 colon) of 12.8 µM and a TGI (HL-60(TB) leukemia) of 0.432 µM. The TGI (HS 578T breast) was 1.32 µM, the TGI (MDA-MB-435) was 0.346 µM and the TGI (HOP-62 NSCLC) was 0.261 µM. It also gave a TGI (MDA-N) of 0.349 µM, a TGI (ACHN renal) of 5.46 µM and a TGI (786-0 renal) of 1.77 µM. It also gave a TGI (RPMI-8226 leukemia) of 1.15 µM.
`CCOC(=O)Cc1[nH]c(C(=O)c2ccccc2)cc1C(=O)c1ccccc1` was tested, and the TGI (T-47D breast) was > 100 µM, the TGI (HCT-15 colon) was > 100 µM and the TGI (HL-60(TB) leukemia) was > 100 µM. For the same molecule, the TGI (HS 578T breast) was > 100 µM, the TGI (MDA-MB-435) was 66 µM and the TGI (HOP-62 NSCLC) was 51.7 µM. For the same molecule, the TGI (ACHN renal) was > 10 µM, the TGI (786-0 renal) was > 10 µM and the TGI (RPMI-8226 leukemia) was > 10 µM.
`COc1ccc(C2N(c3ccc(C)c(N=C=O)c3)C(=O)N3C(c4ccc(OC)cc4)N(c4ccc(C)c(N=C=O)c4)C(=O)N23)cc1` (stereo not given) was tested, and the TGI (SF-539 CNS) was > 100 µM, the TGI (HCT-15 colon) was > 100 µM and the TGI (HL-60(TB) leukemia) was > 100 µM. The TGI (MDA-MB-435) was > 100 µM, the TGI (HOP-62 NSCLC) was > 100 µM and the TGI (MDA-N) was > 100 µM. The TGI (ACHN renal) was > 100 µM, the TGI (786-0 renal) was > 100 µM and the TGI (RPMI-8226 leukemia) was > 100 µM.
With `COc1cc2c3c(n(C)c(=O)c2cc1OC)-c1cc2c(cc1/C3=C\CCCCl)OCO2` the TGI (T-47D breast) was > 100 µM, the TGI (HCT-15 colon) was > 100 µM and the TGI (HL-60(TB) leukemia) was > 100 µM. For the same molecule, the TGI (HS 578T breast) was > 100 µM, the GI50 (MDA-MB-435) was > 100 µM and the TGI (MDA-MB-435) was > 100 µM. The GI50 (HOP-62 NSCLC) was 17.5 µM, the TGI (HOP-62 NSCLC) was 62.8 µM and the TGI (MDA-N) was > 100 µM. For the same molecule, the TGI (ACHN renal) was > 100 µM and the TGI (786-0 renal) was 40 µM.
With `CC1(C)CC(=O)c2c(N)n[nH]c2C1` the TGI (SF-539 CNS) was > 100 µM, the TGI (HL-60(TB) leukemia) was > 100 µM and the TGI (MDA-MB-435) was > 100 µM. For the same molecule, the TGI (HOP-62 NSCLC) was > 100 µM, the TGI (MDA-N) was > 100 µM and the TGI (ACHN renal) was > 100 µM. The TGI (786-0 renal) was > 100 µM and the TGI (RPMI-8226 leukemia) was > 100 µM.
With `CN(C)C(=O)N1N[C@H](c2ccccc2)[C@@H]1c1ccccc1` the TGI (T-47D breast) was > 100 µM, the TGI (SF-539 CNS) was > 100 µM and the TGI (HCT-15 colon) was > 100 µM. The TGI (MDA-MB-435) was > 100 µM, the TGI (HOP-62 NSCLC) was > 100 µM and the TGI (MDA-N) was > 100 µM. The TGI (ACHN renal) was > 100 µM, the TGI (786-0 renal) was > 100 µM and the TGI (RPMI-8226 leukemia) was > 100 µM.
In the case of `Clc1ccc(C2SCc3nc4ccccc4n32)cc1` (stereo not given), the TGI (SF-539 CNS) is reported as 76.8 µM, the TGI (HCT-15 colon) is reported as > 100 µM and the TGI (HL-60(TB) leukemia) is reported as 22.6 µM. For the same molecule, the TGI (ACHN renal) was > 100 µM and the TGI (RPMI-8226 leukemia) was 44.1 µM.
For `COc1cc2nc(-c3cccs3)nc(Nc3ccccc3C(=O)NN)c2cc1OC`, the TGI (T-47D breast) was > 100 µM, the TGI (SF-539 CNS) was > 100 µM and the TGI (HCT-15 colon) was > 100 µM. For the same molecule, the TGI (HL-60(TB) leukemia) was > 100 µM, the TGI (HS 578T breast) was > 100 µM and the TGI (MDA-MB-435) was > 100 µM. For the same molecule, the TGI (HOP-62 NSCLC) was > 100 µM, the TGI (ACHN renal) was > 100 µM and the TGI (786-0 renal) was > 100 µM. The TGI (RPMI-8226 leukemia) was > 100 µM.
